Here are results for 14 compounds from patent US8461107B2 (Merck Sharp & Dohme Corp., priority 2008, dated 2013).

pKi: −log10 of the molar value.

One may read the pKi as −log10 of the Ki, conventionally taken in molar units. Lower therefore signals a large Ki.

For the experiment, the target named is T1, HCV genotype 1b (BK) NS3 modified with a R155K mutation (Hepatitis C virus genotype 1b, UniProt P26663, R1181K).
T1 construct: HCV genotype 1b (BK) NS3 modified with a R155K mutation
The experiment can be described thus: HCV NS3 protease time-resolved fluorescence (TRF) assay, NS3 protease 1b R155K Ki activity. The experiment is classed as biochemical. The following applies: HCV genotype 1b (BK) NS3 with R155K mutation; TRF peptide substrate 100 nM; Ki derived from IC50. The method in brief:
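Pre-incubation of NS3/NS4A protease (genotype 1b BK, R155K) with inhibitor for 30 min, then 1 h at room temperature with 100 nM TRF peptide substrate in pH 7.5 HEPES buffer with 10 mM DTT. Reaction quenched with pH 5.5 MES; time-resolved fluorescence read (ex 340/em 615 nm). Ki derived from four-parameter IC50 fit via IC50=Ki(1+[S]/KM).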
Regarding `C=C[C@@H]1C[C@]1(NC(=O)[C@@H]1C[C@@H]2CN1C(=O)[C@H](C1CCCC1)NC(=O)O[C@@H]1CCC[C@H]1CCCCCn1c(nc3ccccc3c1=O)O2)C(=O)NS(=O)(=O)C1CC1` [(3aR,7S,10S,12R,25aR)-7-cyclopentyl-N-((1R,2S)-1-{[(cyclopropylsulfonyl)amino]carbonyl}-2-vinylcyclopropyl)-5,8,19-trioxo-1,2,3,3a,5,6,7,8,11,12,21,22,23,24,25,25a-hexadecahydro-10H,19H-9,12-methanocyclopenta[18,19][1,10,3,6,12]dioxatriazacyclononadecino[11,12-b]quinazoline-10-carboxamide], the pKi was > 10.00.
The compound `C=C[C@@H]1C[C@]1(NC(=O)[C@@H]1C[C@@H]2CN1C(=O)[C@H](C1CCCC1)NC(=O)O[C@@H]1CCC[C@H]1CCCCCn1c(nc3cc(C(F)(F)F)ccc3c1=O)O2)C(=O)NS(=O)(=O)C1CC1` [(3aR,7S,10S,12R,25aR)-7-cyclopentyl-N-((1R,2S)-1-{[(cyclopropylsulfonyl)amino]carbonyl}-2-vinylcyclopropyl)-5,8,19-trioxo-16-(trifluoromethyl)-1,2,3,3a,5,6,7,8,11,12,21,22,23,24,25,25a-hexadecahydro-10H,19H-9,12-methanocyclopenta[18,19][1,10,3,6,12]dioxatriazacyclononadecino[11,12-b]quinazoline-10-carboxamide] gave a pKi of 9.30 to 10.00.
Under `C=C[C@@H]1C[C@]1(NC(=O)[C@@H]1C[C@@H]2CN1C(=O)[C@H](C1CCCC1)NC(=O)O[C@@H]1CCC[C@H]1CCCCCn1c(nc3c(OC)cccc3c1=O)O2)C(=O)NS(=O)(=O)C1CC1` [(3aR,7S,10S,12R,25aR)-7-cyclopentyl-N-((1R,2S)-1-{[(cyclopropylsulfonyl)amino]carbonyl}-2-vinylcyclopropyl)-15-methoxy-5,8,19-trioxo-1,2,3,3a,5,6,7,8,11,12,21,22,23,24,25,25a-hexadecahydro-10H,19H-9,12-methanocyclopenta[18,19][1,10,3,6,12]dioxatriazacyclononadecino[11,12-b]quinazoline-10-carboxamide] stands > 10.00.
Under `C=C[C@@H]1C[C@]1(NC(=O)[C@@H]1C[C@@H]2CN1C(=O)[C@H](C1CCCC1)NC(=O)O[C@@H]1CCC[C@H]1CCCCCn1c(nc3cc(OC)ccc3c1=O)O2)C(=O)NS(=O)(=O)C1CC1` [(3aR,7S,10S,12R,25aR)-7-cyclopentyl-N-((1R,2S)-1-{[(cyclopropylsulfonyl)amino]carbonyl}-2-vinylcyclopropyl)-16-methoxy-5,8,19-trioxo-1,2,3,3a,5,6,7,8,11,12,21,22,23,24,25,25a-hexadecahydro-10H,19H-9,12-methanocyclopenta[18,19][1,10,3,6,12]dioxatriazacyclononadecino[11,12-b]quinazoline-10-carboxamide] stands > 10.00; under `C=C[C@@H]1C[C@]1(NC(=O)[C@@H]1C[C@@H]2CN1C(=O)[C@H](C1CCCC1)NC(=O)O[C@@H]1CCC[C@H]1CCCCCn1c(cc3cc(OC)ccc3c1=O)O2)C(=O)NS(=O)(=O)C1CC1` [(3aR,7S,10S,12R,25aR)-7-cyclopentyl-N-((1R,2S)-1-{[(cyclopropylsulfonyl)amino]carbonyl}-2-vinylcyclopropyl)-16-methoxy-5,8,19-trioxo-1,2,3,3a,5,6,7,8,11,12,21,22,23,24,25,25a-hexadecahydro-10H,19H-9,12-methanocyclopenta[18,19][1,10,3,6,12]dioxatriazacyclononadecino[12,11-b]isoquinoline-10-carboxamide], > 10.00.
For `C=C[C@@H]1C[C@]1(NC(=O)[C@@H]1C[C@@H]2CN1C(=O)[C@H](C1CCCC1)NC(=O)O[C@@H]1CCC[C@H]1CCCCCn1c(nc3cc(C)ccc3c1=O)O2)C(=O)NS(=O)(=O)C1CC1` [(3aR,7S,10S,12R,25aR)-7-cyclopentyl-N-((1R,2S)-1-{[(cyclopropylsulfonyl)amino]carbonyl}-2-vinylcyclopropyl)-16-methyl-5,8,19-trioxo-1,2,3,3a,5,6,7,8,11,12,21,22,23,24,25,25a-hexadecahydro-10H,19H-9,12-methanocyclopenta[18,19][1,10,3,6,12]dioxatriazacyclononadecino[11,12-b]quinazoline-10-carboxamide], the pKi was > 10.00.
The value for `C=C[C@@H]1C[C@]1(NC(=O)[C@@H]1C[C@@H]2CN1C(=O)[C@H](C1CCCC1)NC(=O)O[C@@H]1CCC[C@H]1CCCCCn1c(cc3ccc(F)cc3c1=O)O2)C(=O)NS(=O)(=O)C1CC1` [(3aR,7S,10S,12R,25aR)-7-cyclopentyl-N-((1R,2S)-1-{[(cyclopropylsulfonyl)amino]carbonyl}-2-vinylcyclopropyl)-17-fluoro-5,8,19-trioxo-1,2,3,3a,5,6,7,8,11,12,21,22,23,24,25,25a-hexadecahydro-10H,19H-9,12-methanocyclopenta[18,19][1,10,3,6,12]dioxatriazacyclononadecino[12,11-b]isoquinoline-10-carboxamide] was > 10.00; that for `C=C[C@@H]1C[C@]1(NC(=O)[C@@H]1C[C@@H]2CN1C(=O)[C@H](C1CCCC1)NC(=O)O[C@@H]1CCC[C@H]1CCCCCn1c(nc3cccc(OC)c3c1=O)O2)C(=O)NS(=O)(=O)C1CC1` [(3aR,7S,10S,12R,25aR)-7-cyclopentyl-N-((1R,2S)-1-{[(cyclopropylsulfonyl)amino]carbonyl}-2-vinylcyclopropyl)-18-methoxy-5,8,19-trioxo-1,2,3,3a,5,6,7,8,11,12,21,22,23,24,25,25a-hexadecahydro-10H,19H-9,12-methanocyclopenta[18,19][1,10,3,6,12]dioxatriazacyclononadecino[11,12-b]quinazoline-10-carboxamide] was 9.30 to 10.00.
On to `C=C[C@@H]1C[C@]1(NC(=O)[C@@H]1C[C@@H]2CN1C(=O)[C@H](C(C)(C)C)NC(=O)O[C@@H]1CCC[C@H]1CCCCCn1c(cc3cc(Cl)ccc3c1=O)O2)C(=O)NS(=O)(=O)C1CC1` [(3aR,7S,10S,12R,25aR)-7-tert-butyl-16-chloro-N-((1R,2S)-1-{[(cyclopropylsulfonyl)amino]carbonyl}-2-vinylcyclopropyl)-5,8,19-trioxo-1,2,3,3a,5,6,7,8,11,12,21,22,23,24,25,25a-hexadecahydro-10H,19H-9,12-methanocyclopenta[18,19][1,10,3,6,12]dioxatriazacyclononadecino[12,11-b]isoquinoline-10-carboxamide], for which the pKi was > 10.00.
`CC[C@@H]1C[C@]1(NC(=O)[C@@H]1C[C@@H]2CN1C(=O)[C@H](C(C)(C)C)NC(=O)O[C@@H]1CCC[C@H]1CCCCCn1c(cc3cc(OC)ccc3c1=O)O2)C(=O)NS(=O)(=O)C1CC1` [(3aR,7S,10S,12R,25aR)-7-tert-butyl-N-((1R,2R)-1-{[(cyclopropylsulfonyl)amino]carbonyl}-2-ethylcyclopropyl)-16-methoxy-5,8,19-trioxo-1,2,3,3a,5,6,7,8,11,12,21,22,23,24,25,25a-hexadecahydro-10H,19H-9,12-methanocyclopenta[18,19][1,10,3,6,12]dioxatriazacyclononadecino[12,11-b]isoquinoline-10-carboxamide] gave a pKi of 9.30 to 10.00.
The value for `C=C[C@@H]1C[C@]1(NC(=O)[C@@H]1C[C@@H]2CN1C(=O)[C@H](C(C)(C)C)NC(=O)O[C@@H]1CCC[C@H]1CCCCCn1c(cc3cc(OC)ccc3c1=O)O2)C(=O)NS(=O)(=O)C1CC1` [(3aR,7S,10S,12R,25aR)-7-tert-butyl-N-((1R,2S)-1-{[(cyclopropylsulfonyl)amino]carbonyl}-2-vinylcyclopropyl)-16-methoxy-5,8,19-trioxo-1,2,3,3a,5,6,7,8,11,12,21,22,23,24,25,25a-hexadecahydro-10H,19H-9,12-methanocyclopenta[18,19][1,10,3,6,12]dioxatriazacyclononadecino[12,11-b]isoquinoline-10-carboxamide] was > 10.00.
Under `C=C[C@@H]1C[C@]1(NC(=O)[C@@H]1C[C@@H]2CN1C(=O)[C@H](C1CCCC1)NC(=O)O[C@@H]1CCC[C@H]1CCCCCn1c(nc3cc(Br)ccc3c1=O)O2)C(=O)NS(=O)(=O)C1CC1` [(3aR,7S,10S,12R,25aR)-16-bromo-7-cyclopentyl-N-((1R,2S)-1-{[(cyclopropylsulfonyl)amino]carbonyl}-2-vinylcyclopropyl)-5,8,19-trioxo-1,2,3,3a,5,6,7,8,11,12,21,22,23,24,25,25a-hexadecahydro-10H,19H-9,12-methanocyclopenta[18,19][1,10,3,6,12]dioxatriazacyclononadecino[11,12-b]quinazoline-10-carboxamide] stands 9.30 to 10.00; under `CC[C@@H]1C[C@]1(NC(=O)[C@@H]1C[C@@H]2CN1C(=O)[C@H](C1CCCCC1)NC(=O)O[C@@H]1CCC[C@H]1CCCCCn1c(cc3cc(Cl)ccc3c1=O)O2)C(=O)NS(=O)(=O)C1CC1` [(3aR,7S,10S,12R,25aR)-16-chloro-7-cyclohexyl-N-((1R,2R)-1-{[(cyclopropylsulfonyl)amino]carbonyl}-2-ethylcyclopropyl)-5,8,19-trioxo-1,2,3,3a,5,6,7,8,11,12,21,22,23,24,25,25a-hexadecahydro-10H,19H-9,12-methanocyclopenta[18,19][1,10,3,6,12]dioxatriazacyclononadecino[12,11-b]isoquinoline-10-carboxamide], 9.30 to 10.00; under `C=C[C@@H]1C[C@]1(NC(=O)[C@@H]1C[C@@H]2CN1C(=O)[C@H](C1CCCCC1)NC(=O)O[C@@H]1CCC[C@H]1CCCCCn1c(cc3cc(Cl)ccc3c1=O)O2)C(=O)NS(=O)(=O)C1CC1` [(3aR,7S,10S,12R,25aR)-16-chloro-7-cyclohexyl-N-((1R,2S)-1-{[(cyclopropylsulfonyl)amino]carbonyl}-2-vinylcyclopropyl)-5,8,19-trioxo-1,2,3,3a,5,6,7,8,11,12,21,22,23,24,25,25a-hexadecahydro-10H,19H-9,12-methanocyclopenta[18,19][1,10,3,6,12]dioxatriazacyclononadecino[12,11-b]isoquinoline-10-carboxamide], > 10.00.
